Two compounds from patent US6369052B1, “Combination of huperzine and nicotinic compounds as a neuroprotective agent” (Georgetown University, priority 2000, dated 2002) can be followed below.

Where two headings read alike, the source gives them in different places.

Type in all cases: cell-based
The subject of assay [1] is mixed cortical cultures from mouse brain. As to the kind of experiment: NMDA-induced cell toxicity in mixed cortical (neuronal-glial) cultures, LDH release (Example 1). As to the method: Graph B represents the dose-dependent effect of (−)-huperzine A alone (unfilled circles) and in the presence (filled circles) of 10 μM (−)-nicotine. Toxicity was induced by a 10 minute treatment with 75 μM NMDA in the absence or presence of the indicated drugs.
In a first experiment, four samples each containing neuronal-glial cultures from mouse cerebral cortical cultures and a different concentration of (−)-nicotine (ranging from 0 to 100 μM) were treated for 10 minutes with 75 μM of NMDA (commercially available, for example, from Sigma Chemical Co., St. Louis, Mo.) to induce cell death. The cultures were prepared from 15-day-old fetal Swiss-Webster mice, as described in Bruno et al., 1998 Neuroscience 85:751-7 (hereinafter “Bruno et al.”), incorporated herein by reference. Neuronal cells were plated in 96-well plates on a layer of confluent glial cells at a density of 200,000 cells/well in EMEM medium containing 5% fetal bovine serum and 5% horse serum. Then the NMDA was removed replacing the medium with fresh serum-free culture medium and cell death was assessed for each sample by measuring the amount of lactate dehydrogenase (“LDH”) released into the medium according to the procedure described in Bruno et al. The data are summarized in FIG. 1, Graph A, as lines connecting the values (represented by unfilled squares) of % of NMDA toxicity (i.e., % cell death) at the corresponding concentration of (−)-nicotine in μM.
In a second experiment, six samples each containing neuronal-glial cultures from mouse brain and a different concentration of (−)-huperzine A (ranging from 0 to 10 μM) were treated with 75 μM of NMDA, using the above-described procedure. Then cell death was assessed for each sample using the procedure described above. The data are summarized in FIG. 1, Graph B, as lines connecting the values (represented by unfilled circles) of % of NMDA toxicity at the corresponding concentration of (−)-huperzine A in μM.
In a third experiment, six samples each containing neuronal-glial cultures from mouse brain, a different concentration of (−)-huperzine A (ranging from 0 to 10 μM), and a fixed concentration of 10 μM of (−)-nicotine were treated with 75 μM NMDA, using the procedure described above. Then cell death was assessed for each sample as above. The data are summarized in FIG. 1, Graph B, as lines connecting the values (represented by black-filled circles) of % of NMDA toxicity at the corresponding μM-concentration of(−)-huperzine A.
(In general: LDH in the medium is a marker of cell lysis.)

The test system of assay [2] is cultures of granule neurons prepared from mouse cerebellum. As to the kind of experiment: β-amyloid-peptide-induced cell toxicity in cerebellar granule neurons, LDH release (Example 2). As to the method:
Toxicity was induced by a 48 hour treatment with 25 μM β-amyloid peptide in the absence or presence of the indicated drugs.
In a first experiment, four samples each containing cultures of granule neurons prepared from mouse cerebellum and a different concentration of (−)-nicotine (ranging from 0 to 100 μM) were treated for 48 hours with 25 μM β-amyloid peptide (“AP”) (commercially available, for example, from Bachem, Inc., Torrance, Calif.) to induce cell death, according to the procedure described in Copani et al., 1995 Mol Pharmacol 47:890-7 (hereinafter “Copani et al.”).
Then cell death was assessed by measuring the amount of LDH released into the medium according to the procedure described in Bruno et al. The data are summarized in FIG. 2, Graph A, as lines connecting the values (represented by unfilled squares) of % of β-amyloid-peptide-induced toxicity (i.e., % cell death) at the corresponding concentration of nicotine in μM.
In a second experiment, four samples each containing cultures of granule neurons prepared from mouse cerebellum and a different concentration of (−)-huperzine A (ranging from 0 to 10 μM), were treated for 48 hours with 25 μM AP, (25-35 fragment) according to the above-described procedure. Then cell death was assessed as described above. The data are summarized in FIG. 2, Graph B, as lines connecting the values (represented by unfilled circles) of % of β-amyloid-peptide-induced toxicity at a particular concentration of (−)-huperzine A in μM.
In a third experiment, 4 samples each containing cultures of granule neurons prepared from mouse cerebellum, a different concentrations of (−)-huperzine A (ranging from 0 to 10 μM), and a fixed concentration of 10 μM of (−)-nicotine were treated for 48 hours with 25 μM AP using the procedure described above. Then cell death was assessed as above. The data are summarized in FIG. 2, Graph B, as lines connecting the values (represented by black-filled circles) of % of β-amyloid-peptide-induced toxicity at a particular μM-concentration of (−)-huperzine A.

In assay [3] the test system is neuronal-glial cultures from mouse cerebral cortical cultures. As to the kind of experiment: NMDA-induced cell toxicity in mixed cortical cultures, low drug concentrations, LDH release (Example 3).
Where [4] appears, read: drug alone, 75 μM NMDA for 10 minutes, FIG. 1.
Setting [5] is: drug alone, nicotine 0-100 μM, huperzine A 0-10 μM.
The mark [6] stands for this setting: drug alone, 25 μM β-amyloid peptide for 48 hours, FIG. 2.

Take `CN1CCCC1c1cccnc1` (single isomer, unassigned; (-)) [(−)-nicotine]: in assay [1], the NMDA-induced cell death entry was “decreased in a dose-dependent manner”, the “cell death (% of NMDA toxicity) at maximal neuroprotection” value was 45%, the “maximal level of neuroprotection” value is reported as “about 55%” and the neuroprotection result is reported as “about 40%”. In assay [2], the “cell death (% of β-amyloid-peptide-induced toxicity) at maximal neuroprotection” value came to 45%, the “maximal level of neuroprotection” value is given as “about 55%”, the neuroprotection result is reported as “about 20%” and the “toxicity induced by 25 μM AP” value is “decreased in a dose-dependent manner”. Moreover, the neuroprotective effect result in assay [3] is “little effect”.

Regarding `C/C=C1\[C@H]2C=C(C)C[C@]1(N)c1ccc(=O)[nH]c1C2` [(−)-huperzine A], in assay [1] (setting [4]), the “cell death (% of NMDA toxicity) at maximal neuroprotection” value worked out at 55% and the “maximal level of neuroprotection” value is reported as “about 45%”. For the same compound, in assay [1] (setting [5]), the NMDA-induced cell death result is reported as “decreased in a dose-dependent manner”. In assay [2] (setting [6]), the “cell death (% of β-amyloid-peptide-induced toxicity) at maximal neuroprotection” value amounted to 70% and the “maximal level of neuroprotection” value was “about 30%”. In assay [2] (setting [5]), the “toxicity induced by 25 μM AP” value is on record as “decreased in a dose-dependent manner”. Besides, the neuroprotective effect entry in assay [3] ((−)-huperzine A alone, 1-1000 nM, 100 μM NMDA for 10 minutes) is given as “no significant neuroprotective effects”.
